Assay results from patent publication US11977067B2 (Radius Health, Inc., priority 2017, dated 2024).
Several values for one entry are separate records, joined by “and”; a condition that tells them apart may be missing. Equal values may be shown once.

Columns and labels:
[1] = target: T1, PTH receptors (Homo sapiens, UniProt Q03431); assay: qualified cell base potency assay for functional PTH activity (cAMP production); type: cell-based
T1 sequence (Q03431 27-593): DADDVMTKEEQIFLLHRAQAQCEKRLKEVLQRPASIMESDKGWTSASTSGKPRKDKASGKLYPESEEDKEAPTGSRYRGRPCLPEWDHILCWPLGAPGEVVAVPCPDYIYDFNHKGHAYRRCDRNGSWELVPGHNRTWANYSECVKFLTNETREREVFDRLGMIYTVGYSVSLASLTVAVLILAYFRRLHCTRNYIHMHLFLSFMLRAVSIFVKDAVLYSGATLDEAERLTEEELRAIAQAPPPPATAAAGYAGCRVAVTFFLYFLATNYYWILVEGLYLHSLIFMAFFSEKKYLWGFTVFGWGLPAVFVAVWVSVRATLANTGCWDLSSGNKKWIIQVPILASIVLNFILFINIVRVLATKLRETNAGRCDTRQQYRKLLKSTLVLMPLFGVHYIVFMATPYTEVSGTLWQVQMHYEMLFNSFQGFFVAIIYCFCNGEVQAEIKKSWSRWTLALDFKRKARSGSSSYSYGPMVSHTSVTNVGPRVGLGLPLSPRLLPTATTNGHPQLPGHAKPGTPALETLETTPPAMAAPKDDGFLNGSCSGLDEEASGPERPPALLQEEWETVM

[2] = (beta-Asp10) abaloparatide levels in formulated registration batches at different storage conditions; type: physicochemical
[3] = rate constants and Arrhenius analysis of (beta-Asp10) abaloparatide formation; type: physicochemical
Protocol: Rate constants at each temperature are tabulated in the top row of Table 18.
An Arrhenius plot was constructed (FIG. 8) by plotting the natural logarithm of the rate constants (k) for three storage temperatures, against the reciprocals of those temperatures in Kelvin. […] The activation energy, Ea, derived with high accuracy from the slope of a linear regression best fit of the Arrhenius plot is Ea=91,670 J/mol. […] For example, the observed rate constant at 5° C., Kobs=0.0655%/month agrees well with the predicted value, Kcalc=0.0644%/month, with only a 0.0011% absolute difference and a 1.7% relative difference.
The amount of b-Asp10 in the API must be determined with rigor and set accordingly to achieve the desired stability profile after pre-specified storage conditions. Previously, this could not be done as the methods used were insufficient for its identification and quantification. Therefore, not only has a new degradant been discovered but the methods described herein have allowed the formation rate equation to be determined and thus allow for setting its specification in the API when coupled with a desired storage stability profile. […] Similarly, the API, once formulated into cartridges is tested for purity including evaluation for (b-Asp10) right after the cartridge is formulated. This is also an important evaluation point for (b-Asp10) because the formulation itself requires time to complete mixing and filling prior to refrigeration.

CC[C@H](C)[C@H](NC(=O)[C@H](CO)NC(=O)[C@H](CCCCN)NC(=O)CNC(=O)[C@H](CCCCN)NC(=O)C[C@H](NC(=O)[C@H](Cc1c[nH]cn1)NC(=O)[C@H](CC(C)C)NC(=O)[C@H](CC(C)C)NC(=O)[C@H](CCC(N)=O)NC(=O)[C@H](Cc1c[nH]cn1)NC(=O)[C@H](CCC(=O)O)NC(=O)[C@H](CO)NC(=O)[C@@H](NC(=O)[C@H](C)N)C(C)C)C(=O)O)C(=O)N[C@@H](CCC(N)=O)C(=O)N[C@@H](CC(=O)O)C(=O)N[C@@H](CC(C)C)C(=O)N[C@@H](CCCNC(=N)N)C(=O)N[C@@H](CCCNC(=N)N)C(=O)N[C@@H](CCCNC(=N)N)C(=O)N[C@@H](CCC(=O)O)C(=O)N[C@@H](CC(C)C)C(=O)N[C@@H](CC(C)C)C(=O)N[C@@H](CCC(=O)O)C(=O)N[C@@H](CCCCN)C(=O)N[C@@H](CC(C)C)C(=O)N[C@@H](CC(C)C)C(=O)NC(C)(C)C(=O)N[C@@H](CCCCN)C(=O)N[C@@H](CC(C)C)C(=O)N[C@@H](Cc1c[nH]cn1)C(=O)N[C@H](C(=O)N[C@@H](C)C(N)=O)[C@@H](C)O [(beta-Asp10) abaloparatide, [b-Asp^10, Glu^22,25, Leu^23,28,31, Aib^29, Lys^26,30]hPTHrP(1-34)NH2)]
agonist on PTH receptors [1]: active per se as an agonist | EC50 ([1]; production of cAMP as a measure of bioactivity): 832 pM | (beta-Asp10) abaloparatide level (mean) in formulated samples ([2]; 5° C. long term storage condition, 0 M): 0.3% | (beta-Asp10) abaloparatide level (mean) in formulated samples ([2]; 5° C. long term storage condition, 3 M): 0.5% | (beta-Asp10) abaloparatide level (mean) in formulated samples ([2]; 5° C. long term storage condition, 6 M): 0.76% | (beta-Asp10) abaloparatide level (mean) in formulated samples ([2]; 5° C. long term storage condition, 9 M): 0.96% | (beta-Asp10) abaloparatide level (mean) in formulated samples ([2]; 5° C. long term storage condition, 12 M): 1.03% | (beta-Asp10) abaloparatide level (mean) in formulated samples ([2]; 5° C. long term storage condition, 18 M): 1.66% | (beta-Asp10) abaloparatide level (mean) in formulated samples ([2]; 5° C. long term storage condition, 24 M): 1.93% | (beta-Asp10) abaloparatide level (mean) in formulated samples ([2]; 25° C. accelerated condition, 0 M): 0.3% | (beta-Asp10) abaloparatide level (mean) in formulated samples ([2]; 25° C. accelerated condition, 1 M): 1.26% | (beta-Asp10) abaloparatide level (mean) in formulated samples ([2]; 25° C. accelerated condition, 3 M): 3.26% | (beta-Asp10) abaloparatide level (mean) in formulated samples ([2]; 25° C. accelerated condition, 6 M): 6.3% | (beta-Asp10) abaloparatide level (mean) in formulated samples ([2]; 25° C. accelerated condition, 9 M): 9.43% | (beta-Asp10) abaloparatide level (mean) in formulated samples ([2]; 25° C. accelerated condition, 12 M): 11.96% | (beta-Asp10) abaloparatide level (mean) in formulated samples ([2]; 25° C. accelerated condition, 18 M): 16.73% | (beta-Asp10) abaloparatide level (mean) in formulated samples ([2]; 25° C. accelerated condition, 24 M): 20.73% | (beta-Asp10) abaloparatide level (mean) in formulated samples ([2]; 40° C. stress condition, 0 M): 0.3% | (beta-Asp10) abaloparatide level (mean) in formulated samples ([2]; 40° C. stress condition, 1 M): 7.10% | (beta-Asp10) abaloparatide level (mean) in formulated samples ([2]; 40° C. stress condition, 3 M): 18.76% | (beta-Asp10) abaloparatide level (mean) in formulated samples ([2]; 40° C. stress condition, 6 M): 32.9% | Difference (%) between kobs and Kcalc (relative difference) ([3]; 5° C.): 2.3% | Kcalc (%/month), rate constant calculated from activation energy ([3]; 5° C.): 0.0644 %/month and 0.0674 %/month | absolute difference between Kobs and Kcalc ([3]; 5° C.): 0.0011% | kobs (%/month), observed rate constant for formation of (beta-Asp10) abaloparatide ([3]; 5° C.): 0.0655 %/month and 0.0690 %/month | Difference (%) between kobs and Kcalc ([3]; 25° C.): −5.6% | Kcalc (%/month), rate constant calculated from activation energy ([3]; 25° C.): 0.938 %/month | kobs (%/month), observed rate constant for formation of (beta-Asp10) abaloparatide ([3]; 25° C.): 0.993 %/month | Difference (%) between kobs and Kcalc ([3]; 40° C.): 3.5% | Kcalc (%/month), rate constant calculated from activation energy ([3]; 40° C.): 5.19 %/month | kobs (%/month), observed rate constant for formation of (beta-Asp10) abaloparatide ([3]; 40° C.): 5.38 %/month | activation energy, Ea ([3]; slope of linear regression of Arrhenius plot, 5° C. to 40° C.): 91,670 J/mol

CC[C@H](C)[C@H](NC(=O)[C@H](CO)NC(=O)[C@H](CCCCN)NC(=O)CNC(=O)[C@H](CCCCN)NC(=O)[C@H](CC(=O)O)NC(=O)[C@H](Cc1c[nH]cn1)NC(=O)[C@H](CC(C)C)NC(=O)[C@H](CC(C)C)NC(=O)[C@H](CCC(N)=O)NC(=O)[C@H](Cc1c[nH]cn1)NC(=O)[C@H](CCC(=O)O)NC(=O)[C@H](CO)NC(=O)[C@@H](NC(=O)[C@H](C)N)C(C)C)C(=O)N[C@@H](CCC(N)=O)C(=O)N[C@@H](CC(=O)O)C(=O)N[C@@H](CC(C)C)C(=O)N[C@@H](CCCNC(=N)N)C(=O)N[C@@H](CCCNC(=N)N)C(=O)N[C@@H](CCCNC(=N)N)C(=O)N[C@@H](CCC(=O)O)C(=O)N[C@@H](CC(C)C)C(=O)N[C@@H](CC(C)C)C(=O)N[C@@H](CCC(=O)O)C(=O)N[C@@H](CCCCN)C(=O)N[C@@H](CC(C)C)C(=O)N[C@@H](CC(C)C)C(=O)NC(C)(C)C(=O)N[C@@H](CCCCN)C(=O)N[C@@H](CC(C)C)C(=O)N[C@@H](Cc1c[nH]cn1)C(=O)N[C@H](C(=O)N[C@@H](C)C(N)=O)[C@@H](C)O [abaloparatide, [Glu^22,25, Leu^23,28,31, Aib^29, Lys^26,30]hPTHrP(1-34)NH2)]
kinetic order of isomerization of abaloparatide to (beta-Asp10) isomer ([3]; formulated drug product): zero order kinetics
